Reference: patent US7892777B2, “Methods for measuring whether a treatment affects RPTP-κ activity” (The Regents Of The University Of Michigan, priority 2007, dated 2011)

Tests used:
EGFR = EGFR tyrosine phosphorylation (EGFR activation) in primary human keratinocytes; assay type: cell-based; settings: human primary keratinocytes treated before UV irradiation (extracts: 16 hours, 50 mJ/cm2, 30 minutes post irradiation)
Experimental: With reference to FIG. 3, UV-induced EGFR tyrosine phosphorylation is shown to be ligand-independent and mediated by oxidative inhibition of RPTP-κ in primary human keratinocytes. Shown in panel A, primary human keratinocytes were treated with control IgG1 or EGFR antibody LA1 (1 μg/mL), which blocks ligand binding, as indicated. Cells were then treated with vehicle (CTRL), or EGF (10 ng/mL) for 10 min, or UV irradiated (50 mJ/cm^2) and harvested 15 min post irradiation. Whole cell lysates were subjected to Western analysis for total EGFR and tyrosine-phosphorylated EGFR. Levels of immunoreactive EGFR were quantified by chemifluorescent detection. Results are mean±S.E. of three independent experiments; *, p<0.05. […] Shown in panel B, human keratinocytes were UV-irradiated (50 mJ/cm^2), and whole cell lysates were prepared at the indicated times. RPTP-κ and β-actin (internal control) were detected by Western blot, and quantified by chemifluorescent detection. Results are mean±S.E. of three independent experiments; *, p<0.05. […] Shown in panel C, primary human keratinocytes were mock (No UV) or UV irradiated (50 mJ/cm^2), and whole cell lysates were prepared 5 min post-UV irradiation. RPTP-κ was immunoprecipitated, and phosphatase activity was determined using a tyrosine-phosphorylated EGFR peptide as substrate. Phosphatase activity was normalized to RPTP-κ protein content in the immunoprecipitates, which was quantified by Western analysis using chemifluorescent detection. Results are mean±S.E. of three independent experiments; *, p<0.05. […] Endogenous RPTP-κ was immunoprecipitated, and assayed for activity in buffer containing dithiothreitol to reduce oxidized RPTP-κ to restore enzymatic activity, using a tyrosine-phosphorylated EGFR peptide as substrate. Results are mean±S.E. of three independent experiments; *, p<0.05. Shown in panel E, RPTP-κ was immunoprecipitated from mock or UV-irradiated human keratinocytes, and the immunoprecipitates were treated with DTT to reduce oxidized RPTP-κ, as described above for panel C. Reduced RPTP-κ was irreversibly oxidized by pervanadate, and oxidized (OX-PTP) and total RPTP-κ were detected by Western blot, using specific antibodies. Results are mean±S.E. of three independent experiments; *, p<0.05.
With reference to FIG. 4, knockdown of RPTP-κ is shown to increase EGFR tyrosine phosphorylation in primary human keratinocytes. Shown in panel A, human keratinocytes were transfected with scrambled control (CTRL) or RPTP-κ siRNA. Two days post-transfection, whole cell lysates were prepared and analyzed for RPTP-κ and β-actin (internal control) proteins by Western blot. Results are mean±S.E. of three independent experiments; *, p<0.05. […] Shown in panel B, two days after transfection with control (CTRL) or RPTP-κ siRNA, keratinocytes were UV irradiated (50 mJ/cm2). Whole cell lysates were prepared 15 min post-UV irradiation and analyzed for total EGFR and tyrosine-phosphorylated EGFR Western blot. Results are mean±S.E. of three independent experiments; *, p<0.05. […] Shown in panel C, keratinocytes were transfected with control (CTRL) or RPTP-κ siRNA and treated with control IgG or neutralizing anti-EGFR antibody. Two days post-transfection, whole cell lysates were prepared and total and tyrosine-phosphorylated EGFR were quantified by ELISA. Results are mean±S.E. of three independent experiments; *, p<0.05.
With reference to FIG. 7, primary adult human keratinocytes were treated with Laminaria japonica extract (LJE) or Porphyra haitanensis extract (PHE) for 16 hours prior to exposure to ultraviolet (UV) irradiation (50 mJ/cm2). Cells were analyzed for phosphorylated epidermal growth factor receptor (EGFR) and total EGFR by Western analyses 30 minutes post irradiation. […]

purified EGFR = purified EGFR (Homo sapiens, UniProt P00533); settings: EGFR with EGF and ATP/Mg2+, H2O2 at room temperature 30 min; FIG. 1B
Sequence of purified EGFR (P00533 25-1210): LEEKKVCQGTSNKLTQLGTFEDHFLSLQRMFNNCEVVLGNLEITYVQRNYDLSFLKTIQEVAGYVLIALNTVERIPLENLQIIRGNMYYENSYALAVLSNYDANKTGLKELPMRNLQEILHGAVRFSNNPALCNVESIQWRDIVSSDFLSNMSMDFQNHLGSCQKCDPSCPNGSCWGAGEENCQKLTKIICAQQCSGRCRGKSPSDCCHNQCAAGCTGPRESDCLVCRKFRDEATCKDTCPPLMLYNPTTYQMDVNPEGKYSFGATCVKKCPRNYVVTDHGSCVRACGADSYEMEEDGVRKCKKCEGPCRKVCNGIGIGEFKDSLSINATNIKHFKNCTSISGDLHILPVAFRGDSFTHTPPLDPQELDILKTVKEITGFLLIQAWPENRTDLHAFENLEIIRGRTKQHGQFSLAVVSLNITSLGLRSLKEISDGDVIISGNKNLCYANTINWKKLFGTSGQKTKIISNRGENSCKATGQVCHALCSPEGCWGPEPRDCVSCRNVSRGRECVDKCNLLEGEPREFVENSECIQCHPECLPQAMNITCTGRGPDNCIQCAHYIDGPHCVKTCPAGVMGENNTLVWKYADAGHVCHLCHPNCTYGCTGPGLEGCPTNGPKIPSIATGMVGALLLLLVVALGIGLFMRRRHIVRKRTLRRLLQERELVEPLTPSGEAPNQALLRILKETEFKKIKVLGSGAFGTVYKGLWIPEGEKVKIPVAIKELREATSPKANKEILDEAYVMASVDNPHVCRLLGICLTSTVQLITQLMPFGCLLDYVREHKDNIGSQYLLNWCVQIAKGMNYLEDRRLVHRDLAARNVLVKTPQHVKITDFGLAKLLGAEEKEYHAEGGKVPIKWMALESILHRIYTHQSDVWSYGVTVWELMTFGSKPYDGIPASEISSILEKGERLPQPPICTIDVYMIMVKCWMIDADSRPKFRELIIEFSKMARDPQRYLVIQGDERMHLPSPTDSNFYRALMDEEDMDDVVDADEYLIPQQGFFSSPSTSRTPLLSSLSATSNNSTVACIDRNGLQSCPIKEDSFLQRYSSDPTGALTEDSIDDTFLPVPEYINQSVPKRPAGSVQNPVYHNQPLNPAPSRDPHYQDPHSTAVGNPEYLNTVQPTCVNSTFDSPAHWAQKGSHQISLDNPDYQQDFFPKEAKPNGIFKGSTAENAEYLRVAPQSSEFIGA

RPTP-κ and EGFR = RPTP-κ and EGFR (Homo sapiens, UniProt Q15262); settings: purified RPTP-κ and EGFR together, H2O2 100 μM, room temperature 30 min; FIG. 1C
Sequence of RPTP-κ and EGFR (Q15262 775-1439 limits assumed): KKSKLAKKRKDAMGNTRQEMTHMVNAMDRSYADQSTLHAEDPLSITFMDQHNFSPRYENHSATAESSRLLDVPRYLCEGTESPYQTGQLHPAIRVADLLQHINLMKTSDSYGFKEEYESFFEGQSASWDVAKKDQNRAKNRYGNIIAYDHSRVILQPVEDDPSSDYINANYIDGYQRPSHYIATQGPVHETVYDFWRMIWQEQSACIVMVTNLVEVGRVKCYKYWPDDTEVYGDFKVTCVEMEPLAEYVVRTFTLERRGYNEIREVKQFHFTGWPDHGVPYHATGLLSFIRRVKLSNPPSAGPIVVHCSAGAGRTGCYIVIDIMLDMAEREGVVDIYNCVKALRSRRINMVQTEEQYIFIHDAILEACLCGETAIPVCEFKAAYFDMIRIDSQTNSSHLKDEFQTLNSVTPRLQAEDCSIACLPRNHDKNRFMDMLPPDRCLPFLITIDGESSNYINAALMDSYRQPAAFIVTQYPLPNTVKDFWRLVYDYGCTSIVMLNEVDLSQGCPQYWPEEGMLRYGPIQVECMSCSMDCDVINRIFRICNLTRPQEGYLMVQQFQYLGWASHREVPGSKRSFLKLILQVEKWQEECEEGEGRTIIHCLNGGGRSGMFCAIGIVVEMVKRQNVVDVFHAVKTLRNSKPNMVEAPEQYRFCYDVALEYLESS

[1] = molecular target: RPTP-κ glutathione S-transferase fusion protein (Homo sapiens, UniProt Q15262); settings: 100 μM H2O2, room temperature 30 min; FIG. 1A
Sequence of RPTP-κ glutathione S-transferase fusion protein (Q15262 775-1439 limits assumed): as above

SMILES | UV irradiation-induced EGFR activation (EGFR) | other results
O=C(/C=C/c1ccc(O)c(O)c1)OCCc1ccccc1 [CAPE, Caffeic acid phenethyl ester] | no effect | –
OO [H2O2, hydrogen peroxide] | – | effect on tyrosine phosphorylation of purified EGFR (purified EGFR): no direct effect; EGFR tyrosine phosphorylation (RPTP-κ and EGFR): increased to the level observed in the absence of RPTP-κ; loss of RPTP-κ activity [1]: 80%
CC1=NN(c2ccccc2)C(=O)C1 [MCI-186, 3-Methyl-1-phenyl-2-pyrazolin-5-one] | no effect | –
COC1=C(OC)C(=O)C(CCCCCCCCCC[P+](c2ccccc2)(c2ccccc2)c2ccccc2)=C(C)C1=O [Mito Q10] | no effect | –
CC(=O)N[C@@H](CS)C(=O)O [N-Acetyl cysteine] | no effect | –
Oc1ccc(C=Cc2cc(O)cc(O)c2)cc1 [Resveratrol] | no effect | UV irradiation-induced EGFR activation (EGFR; listed as resveratrol): did not exhibit activity
CC1=C(C)C(=O)C(CC[C@](C)(O)CCC[C@H](C)CCC[C@H](C)CCCC(C)C)=C(C)C1=O [Tocopherylquinone, d-alpha] | no effect | –
